Results on one molecule are retold here after patent US20230052601A1, “HALO ACTIVE AROMATIC SULFONAMIDE PHARMACEUTICAL COMPOSITIONS FOR INTERNAL USE” (priority 2021, published 2023).

The assay has as its system P. aeruginosa. The experiment in a line: Flame burn injury with subcutaneous P. aeruginosa infection in mice, survival (Example 3). It counts as in vivo. The following applies: burned mice infected with P. aeruginosa; 1 mg then six doses of 0.5 mg subcutaneously; observed seven days; five treated animals; controls 4 of 11 survived; Fisher exact 0.0337. As for the experimental part:
Adult mice (n=16) received a ˜20% flame burn injury, followed by resuscitation with two doses of 0.5 mL of saline and […] of tramadol for analgesia. After 5 minutes, they were infected with P. aeruginosa subcutaneously under the burn wound. 20 minutes post injury, five of the animals received 1 mg of BENZ subcutaneously in 0.25 ml saline, followed by six doses of 0.5 mg of BENZ subcutaneously also in 0.25 ml saline, approximately 8-12 hours apart. The animals were observed several times daily for seven days.

For `O=C(O)c1ccc(S(=O)(=O)NCl)cc1` [BENZ, N-chloro-4-carboxybenzenesulfonamide], the “survival of treated animals” value was “all five survived”.
